From ChEMBL document CHEMBL1140637, “QSAR modeling of matrix metalloproteinase inhibition by N-hydroxy-alpha-phenylsulfonylacetamide derivatives” (Bioorg Med Chem, 2007)

What was measured:
[1] = biological target: T1, Interstitial collagenase (Homo sapiens) (UniProt P03956); experiment: Inhibition of MMP1
T1 sequence (whole entry): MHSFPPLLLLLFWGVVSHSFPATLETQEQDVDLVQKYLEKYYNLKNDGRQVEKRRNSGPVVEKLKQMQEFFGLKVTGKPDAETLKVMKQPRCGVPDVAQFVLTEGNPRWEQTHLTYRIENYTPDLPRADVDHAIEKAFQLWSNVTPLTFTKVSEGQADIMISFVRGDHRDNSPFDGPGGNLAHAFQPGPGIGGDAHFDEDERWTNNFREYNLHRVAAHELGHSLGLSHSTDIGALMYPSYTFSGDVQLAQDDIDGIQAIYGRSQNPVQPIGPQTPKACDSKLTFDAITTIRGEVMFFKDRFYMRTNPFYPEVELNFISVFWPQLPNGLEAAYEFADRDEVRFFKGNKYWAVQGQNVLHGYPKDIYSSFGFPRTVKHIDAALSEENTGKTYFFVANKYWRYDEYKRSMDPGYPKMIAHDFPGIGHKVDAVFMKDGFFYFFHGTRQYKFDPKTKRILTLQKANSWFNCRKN

[2] = biological target: Matrix metalloproteinase-9 (Homo sapiens) (UniProt P14780); experiment: Inhibition of MMP9
[3] = biological target: Collagenase 3 (Homo sapiens) (UniProt P45452)

Sequence of Matrix metalloproteinase-9 (Homo sapiens) (P14780 whole entry): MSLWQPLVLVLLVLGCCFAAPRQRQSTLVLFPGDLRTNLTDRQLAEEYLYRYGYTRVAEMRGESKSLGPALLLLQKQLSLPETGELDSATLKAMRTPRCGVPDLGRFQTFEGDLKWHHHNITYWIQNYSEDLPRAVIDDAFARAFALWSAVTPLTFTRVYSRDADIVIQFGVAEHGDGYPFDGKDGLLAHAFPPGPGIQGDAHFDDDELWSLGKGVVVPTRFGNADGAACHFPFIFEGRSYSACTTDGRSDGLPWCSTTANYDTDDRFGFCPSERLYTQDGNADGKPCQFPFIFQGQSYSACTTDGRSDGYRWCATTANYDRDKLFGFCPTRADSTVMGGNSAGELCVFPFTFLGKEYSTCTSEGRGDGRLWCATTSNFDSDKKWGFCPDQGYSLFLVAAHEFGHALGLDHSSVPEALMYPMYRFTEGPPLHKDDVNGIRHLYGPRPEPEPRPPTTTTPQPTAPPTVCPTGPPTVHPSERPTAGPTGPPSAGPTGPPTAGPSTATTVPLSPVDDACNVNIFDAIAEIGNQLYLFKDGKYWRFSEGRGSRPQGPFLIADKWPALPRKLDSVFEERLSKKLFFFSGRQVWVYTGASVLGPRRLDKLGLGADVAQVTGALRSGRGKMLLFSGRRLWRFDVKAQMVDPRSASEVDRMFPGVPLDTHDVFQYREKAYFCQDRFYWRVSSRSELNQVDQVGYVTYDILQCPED

| log(10^6/IC50) [1] | log(10^6/IC50) [2] | log(10^6/IC50) [3] | SMILES |
| --- | --- | --- | --- |
| 3.62 | 4.96 | 4.85 | C=C(C)[C@@](C)(C(=O)NO)S(=O)(=O)c1ccc(OC)cc1 |
| 3.31 | 6 | – | COc1ccc(CN2CCC(C(=O)NO)(S(=O)(=O)c3ccc(Oc4ccc(Cl)cc4)cc3)CC2)cc1 |
| 2.9 | 5.7 | 5.7 | O=C(NO)C1(S(=O)(=O)c2ccc(Oc3ccc(Cl)cc3)cc2)CCNCC1 |
| 3.24 | – | 4.05 | COc1ccc(S(=O)(=O)[C@](CCC(C)C)(Cc2cccnc2)C(=O)NO)cc1 |
| 2.5 | 4.85 | 5.3 | CCC(CC)COc1ccc(S(=O)(=O)C2(C(=O)NO)CCN(Cc3ccccc3)CC2)cc1 |
| 3.41 | 5.52 | 5.52 | COc1ccc(S(=O)(=O)C2(C(=O)NO)CCN(Cc3ccc(OCCN4CCCCC4)cc3)CC2)cc1 |
| 2.15 | 4.37 | 5.7 | CCCCOc1ccc(S(=O)(=O)C2(C(=O)NO)CCN(CC)CC2)cc1 |
| 2.76 | 6 | 6 | CCN1CCC(C(=O)NO)(S(=O)(=O)c2ccc(Oc3ccc(Cl)cc3)cc2)CC1 |
| 2.44 | 4.7 | 5.3 | CCCCOc1ccc(S(=O)(=O)C2(C(=O)NO)CCN(Cc3ccc(Cl)c(Cl)c3)CC2)cc1 |
| 2.71 | 5.7 | – | CCCCOc1ccc(S(=O)(=O)C2(C(=O)NO)CCN(Cc3ccc(OCCN4CCCCC4)cc3)CC2)cc1 |
| 3.1 | 6 | 6 | O=C(NO)C1(S(=O)(=O)c2ccc(Oc3ccc(Cl)cc3)cc2)CCN(Cc2ccccc2)CC1 |
| 3.18 | 4.47 | 5.7 | COc1ccc(CCN2CCC(C(=O)NO)(S(=O)(=O)c3ccc(OC)cc3)CC2)cc1 |
| 2.86 | 4.41 | 5.15 | C=C(C)N1CCC(C(=O)NO)(S(=O)(=O)c2ccc(OC)cc2)CC1 |
| 3.17 | 4.08 | 4.49 | C#CC[C@](Cc1cccnc1)(C(=O)NO)S(=O)(=O)c1ccc(OC)cc1 |
| 3.27 | 4.96 | 5.52 | COc1ccc(S(=O)(=O)C2(C(=O)NO)CCN(Cc3ccc(-c4cccs4)cc3)CC2)cc1 |
| 3.37 | 5.22 | – | COc1ccc(S(=O)(=O)C2(C(=O)NO)CCN(Cc3ccc(-c4ccccn4)cc3)CC2)cc1 |
| 3.62 | 5.05 | – | COc1ccc(S(=O)(=O)[C@](C)(Cc2ccc(OCCN3CCCCC3)cc2)C(=O)NO)cc1 |
| 2.47 | 5 | 5.7 | CCCCOc1ccc(S(=O)(=O)C2(C(=O)NO)CCN(C)CC2)cc1 |
| – | 5.52 | – | O=C(NO)C1(S(=O)(=O)c2ccc(OCc3ccccc3)cc2)CCN(Cc2ccccc2)CC1 |
| – | 4.55 | 5.7 | CCCCOc1ccc(S(=O)(=O)C2(C(=O)NO)CCN(CCCC)CC2)cc1 |
| 2.54 | 5.3 | – | CCCCOc1ccc(S(=O)(=O)C2(C(=O)NO)CCN(CCOc3ccccc3)CC2)cc1 |

Further lines, the compound ahead of its results:

| SMILES | log(10^6/IC50) [1] | log(10^6/IC50) [2] | log(10^6/IC50) [3] |
| --- | --- | --- | --- |
| COc1ccc(S(=O)(=O)C(C)(Cc2ccc(-c3ccccc3)cc2)C(=O)NO)cc1 (stereo unspecified) | 3.8 | 4.64 | – |
| COc1ccc(S(=O)(=O)C2(C(=O)NO)CCN(C(C)C)CC2)cc1 | 2.35 | 3.43 | 4.47 |
| COc1ccc(S(=O)(=O)C2(C(=O)NO)CCN(Cc3ccc4ccccc4c3)CC2)cc1 | 3.43 | 5.3 | – |
| COc1ccc(S(=O)(=O)C2(C(=O)NO)CCN(Cc3ccc(F)cc3)CC2)cc1 | 3.18 | 4.8 | 5.7 |
| COc1ccc(S(=O)(=O)C2(C(=O)NO)CCN(Cc3ccccc3)CC2)cc1 | 3.31 | 5 | 5.7 |
| CCCCOc1ccc(S(=O)(=O)C2(C(=O)NO)CCN(CCCOc3ccccc3)CC2)cc1 | 2.42 | 5.3 | – |
| CCN(CC)CCOc1ccc(CC(C)(C(=O)NO)S(=O)(=O)c2ccc(OC)cc2)cc1 (single isomer, unassigned) | 3.5 | 4.89 | 4.82 |
| CCCCOc1ccc(S(=O)(=O)C2(C(=O)NO)CCN(Cc3cccc(OC)c3)CC2)cc1 | 2.82 | 5.52 | – |
| COc1ccc(S(=O)(=O)C2(C(=O)NO)CCN(Cc3ccc(Cl)c(Cl)c3)CC2)cc1 | 3.35 | 5.22 | 5.7 |
| COc1ccc(S(=O)(=O)C2(C(=O)NO)CCN(Cc3ccc(-c4ccccc4)cc3)CC2)cc1 | 2.88 | 4.89 | 5.52 |
| O=C(NO)C1(S(=O)(=O)c2ccc(-c3ccco3)cc2)CCN(Cc2ccccc2)CC1 | 4.4 | 5.52 | – |
| COc1ccc(S(=O)(=O)C2(C(=O)NO)CCN(CCOc3ccccc3)CC2)cc1 | 3.2 | 4.59 | 5.52 |
| CCCCN1CCC(C(=O)NO)(S(=O)(=O)c2ccc(Oc3ccc(Cl)cc3)cc2)CC1 | 2.97 | 6 | 6 |
| CCN(CC)CCOc1ccc(C[C@](C)(C(=O)NO)S(=O)(=O)c2ccc(-c3ccco3)cc2)cc1 | 4.85 | 5.4 | 5.7 |
| COc1ccc(S(=O)(=O)C2(C(=O)NO)CCN(Cc3cccc(OC)c3)CC2)cc1 | 3.28 | 5.05 | 5.7 |
| COc1ccc(S(=O)(=O)C2(C(=O)NO)CCN(CCCOc3ccccc3)CC2)cc1 | 2.92 | 4.36 | 5.4 |
| COc1ccc(S(=O)(=O)[C@@](C)(CC2CCCCC2)C(=O)NO)cc1 | 3.49 | 5.05 | 4.62 |
| COc1ccc(S(=O)(=O)[C@](C)(Cc2ccc(OCCCN3CCN(c4cccc(Cl)c4)CC3)cc2)C(=O)NO)cc1 | 3.23 | 5.15 | 5.4 |
| COc1ccc(S(=O)(=O)C2(C(=O)NO)CCN(Cc3ccc(C)cc3)CC2)cc1 | 3.31 | 4.77 | 5.7 |
| COc1ccc(S(=O)(=O)C2(C(=O)NO)CCN(C(C)(C)C)CC2)cc1 | – | 3.19 | 3.83 |
| COc1ccc(S(=O)(=O)C(C)(C/C=C/c2ccccc2)C(=O)NO)cc1 (stereo unspecified) | 3.52 | 4.8 | 4.92 |
